In one experiment the target is BRD4 (His-Brd4(44-477)) (Homo sapiens (Human), UniProt O60885). The experiment is described as follows: TR-FRET in-vitro binding assay for BRD4. The note with it: single determination or n ≧ 2 independent determinations, read-out: Biochemical IC50 BRD4. Summed up:
(§1)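 His-tagged BRD2, BRD3 and BRD4 fragments tested by TR-FRET at 8 compound concentrations, with DMSO stocks at 10 mM. Read on EnVision after 35 min incubation at 30° C.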
(In TR-FRET formats the signal depends on donor and acceptor labels being close together.)

A further experiment concerns the target BRD2 (His-Brd2(60-472)) (Homo sapiens (Human), UniProt P25440). The experiment can be described thus: TR-FRET in-vitro binding assay for BRD2. To be noted: single determination or n ≧ 2 independent determinations, read-out: Biochemical IC50 BRD2. Summed up:
as §1

The next experiment has as its target BRD3 (His-Brd3(20-477)) (Homo sapiens (Human), UniProt Q15059). The experiment can be described thus: TR-FRET in-vitro binding assay for BRD3. To be noted: single determination or n ≧ 2 independent determinations, read-out: Biochemical IC50 BRD3. Summed up:
as §1

The target in experiment [1] is CREBBP bromodomain (His-CREBBP(1081-1197)) (Homo sapiens (Human), UniProt Q92793). The experiment can be described thus: AlphaScreen in-vitro binding assay for CREBBP. To be noted: single determination or n ≧ 2 independent determinations, read-out: Biochemical IC50 CREBBP. An outline of the steps:
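Detection used nickel-chelate acceptor plus streptavidin donor AlphaScreen beads, 1 h room temperature. Percent inhibition fitted by non-linear regression to IC50.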
(In Alpha technology, singlet oxygen from a donor bead excites a nearby acceptor bead.)

In experiment [2] the target is nuclear BRD4-NUT foci in HCC2494 NUT midline carcinoma cells (Homo sapiens, UniProt O60885). The experiment can be described thus: cell-based.
A further experiment deals with THP-1 cells. The experiment can be described thus: Cell growth inhibition assay (CellTiter-Glo), THP-1.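 On all read-outs here: viability read as cellular ATP luminescence after 4 days, 3-fold dilution series from 10 µM, DMSO vehicle-treated cells taken as 100%, cell-free medium wells as −100%.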 To be noted: for GI50: Homo sapiens, THP-1, read-out: THP-1 GI50; for THP-1 TGI: THP-1 cells, total growth inhibition, CellTiter-Glo. A general note: ATP-based viability assays read luminescence as a measure of living cells.
The subject of a further experiment is K-562 cells. The experiment can be described thus: Cell growth inhibition assay (CellTiter-Glo), K-562.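 On all read-outs here: cellular ATP measured by luminescence after 4 days of exposure, 3-fold dilution series from 10 µM, DMSO vehicle-treated cells define 100%, cell-free medium wells −100%.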 To be noted: for GI50: Homo sapiens, K562, read-out: K-562 GI50; for K-562 TGI: K-562 cells, total growth inhibition, CellTiter-Glo.
For another experiment, the system named is MV-4-11 cells. The experiment can be described thus: Cell growth inhibition assay (CellTiter-Glo), MV-4-11.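 On all read-outs here: cellular ATP luminescence after 4 days, 3-fold dilution series from 10 µM top dose, vehicle (0.1% DMSO) set to 100%, cell-free medium set to −100%, day 0 corrected.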 The note with it: for GI50: Homo sapiens, MV4-11, read-out: MV-4-11 GI50; for MV-4-11 TGI: MV-4-11 cells, total growth inhibition, CellTiter-Glo.

What is called IC50 is the concentration needed to halve the response being measured. As a reminder, the GI50 is the concentration at which growth is held to half of that of the control.

BRD3 (His-Brd3(20-477)), sequence (Q15059 20-477): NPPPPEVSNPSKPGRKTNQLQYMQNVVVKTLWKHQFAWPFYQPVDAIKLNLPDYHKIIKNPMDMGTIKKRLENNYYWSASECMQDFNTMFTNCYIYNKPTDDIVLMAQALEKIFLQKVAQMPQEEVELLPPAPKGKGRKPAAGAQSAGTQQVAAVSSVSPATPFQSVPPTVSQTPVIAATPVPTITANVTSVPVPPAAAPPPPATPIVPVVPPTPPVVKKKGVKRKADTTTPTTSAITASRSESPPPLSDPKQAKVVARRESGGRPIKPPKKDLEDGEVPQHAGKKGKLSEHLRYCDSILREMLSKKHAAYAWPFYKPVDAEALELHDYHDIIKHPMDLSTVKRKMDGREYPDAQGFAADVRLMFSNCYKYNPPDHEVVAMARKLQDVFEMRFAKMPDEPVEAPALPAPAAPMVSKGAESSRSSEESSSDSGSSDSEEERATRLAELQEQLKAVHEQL
BRD2 (His-Brd2(60-472)), sequence (P25440 60-472): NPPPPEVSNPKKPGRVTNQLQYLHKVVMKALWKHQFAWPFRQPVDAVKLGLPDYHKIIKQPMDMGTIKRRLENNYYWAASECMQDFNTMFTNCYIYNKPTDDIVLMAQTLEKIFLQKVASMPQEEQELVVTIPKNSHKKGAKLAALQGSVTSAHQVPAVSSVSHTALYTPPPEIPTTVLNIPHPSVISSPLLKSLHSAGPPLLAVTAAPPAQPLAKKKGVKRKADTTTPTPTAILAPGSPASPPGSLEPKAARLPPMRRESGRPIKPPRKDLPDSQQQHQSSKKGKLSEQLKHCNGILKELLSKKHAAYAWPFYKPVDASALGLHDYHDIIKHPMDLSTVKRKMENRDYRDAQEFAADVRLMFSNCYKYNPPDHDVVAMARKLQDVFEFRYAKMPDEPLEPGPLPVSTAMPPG
CREBBP bromodomain (His-CREBBP(1081-1197)), sequence (Q92793 1081-1197): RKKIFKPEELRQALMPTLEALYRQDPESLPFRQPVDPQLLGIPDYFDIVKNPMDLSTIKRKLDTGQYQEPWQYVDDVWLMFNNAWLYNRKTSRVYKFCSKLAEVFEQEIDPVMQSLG

With `COc1ccc(-c2nc3c(n2C(C)C)C(c2ccc(Cl)cc2)N(c2cc(OC)c4nnc(C)n4c2)C3=O)cn1` (stereo not shown) [Example 52, 6-(4-chlorophenyl)-1-isopropyl-5-(8-methoxy-3-methyl-[1,2,4]triazolo[4,3-a]pyridin-6-yl)-2-(6-methoxypyridin-3-yl)-5,6-dihydropyrrolo[3,4-d]imidazol-4(1H)-one], the IC50 at BRD4 (His-Brd4(44-477)) is 35 nM; at BRD2 (His-Brd2(60-472)) it was 80 nM; at BRD3 (His-Brd3(20-477)), 63 nM; in experiment [1], above 37000 nM; in experiment [2], 710 nM. For the same molecule, the GI50 is 981 nM in the experiment with THP-1 cells, 2480 nM with K-562 cells and 271 nM in the experiment with MV-4-11 cells. The “THP-1 TGI” value with THP-1 cells is 1920 nM. Also, the “K-562 TGI” value in the experiment on K-562 cells is above 10000 nM. Moreover, in the experiment with MV-4-11 cells, the “MV-4-11 TGI” value amounted to 409 nM.
For `CCn1c(-c2ccnn2C)nc2c1C(=O)N(c1cc(C)c(=O)n(C)c1)C2c1ccc(Cl)cc1` (stereo not shown) [Example 42, 6-(4-chlorophenyl)-5-(1,5-dimethyl-6-oxo-1,6-dihydropyridin-3-yl)-3-ethyl-2-(1-methyl-1H-pyrazol-5-yl)-5,6-dihydropyrrolo[3,4-d]imidazol-4(3H)-one], the half-inhibitory concentration (IC50) on BRD4 (His-Brd4(44-477)) turned out to be 69 nM; on BRD2 (His-Brd2(60-472)), 65 nM; at BRD3 (His-Brd3(20-477)), 61 nM; in experiment [1], 3400 nM; in experiment [2], 64.2 nM. For the same molecule, the GI50 amounted to 74.3 nM in the experiment with THP-1 cells, 274 nM in the experiment with K-562 cells and 53.5 nM with MV-4-11 cells. Further, the “THP-1 TGI” value in the experiment on THP-1 cells came out at 126 nM. The “K-562 TGI” value in the experiment with K-562 cells is above 10000 nM. Besides, in the experiment with MV-4-11 cells, the “MV-4-11 TGI” value was found to be 102.3 nM.
On to `Cc1cc(N2C(=O)c3nc(C4=CCOCC4)n(C(C)C)c3C2c2ccc(Cl)cc2)cn2c(C)nnc12` (stereo not shown) [Example 14, 6-(4-chlorophenyl)-2-(3,6-dihydro-2H-pyran-4-yl)-5-(3,8-dimethyl-[1,2,4]triazolo[4,3-a]pyridin-6-yl)-1-isopropyl-5,6-dihydropyrrolo[3,4-d]imidazol-4(1H)-one], for which the concentration for half-maximal inhibition (IC50) was found to be 16 nM on BRD4 (His-Brd4(44-477)); 33 nM on BRD2 (His-Brd2(60-472)); 15 nM at BRD3 (His-Brd3(20-477)); 2300 nM in experiment [1]; 40.9 nM in experiment [2]. Further, the values for the GI50 with THP-1 cells, in the experiment on K-562 cells and in the experiment with MV-4-11 cells were 66 nM, 203 nM and 20.4 nM, respectively. In addition, the “THP-1 TGI” value in the experiment with THP-1 cells is 120 nM. The “K-562 TGI” value in the experiment on K-562 cells was above 10000 nM. The “MV-4-11 TGI” value in the experiment with MV-4-11 cells turned out to be 38.8 nM.
On to `Cc1cc(N2C(=O)c3nc(C4CC4)n(C)c3C2c2ccc(Cl)cc2)cn2c(C)nnc12` (stereo not shown) [Example 57, 6-(4-chlorophenyl)-2-cyclopropyl-5-(3,8-dimethyl-[1,2,4]triazolo[4,3-a]pyridin-6-yl)-1-methyl-5,6-dihydropyrrolo[3,4-d]imidazol-4(1H)-one], for which the concentration for half-maximal inhibition (IC50) on BRD4 (His-Brd4(44-477)) was below 11 nM; on BRD2 (His-Brd2(60-472)) it was below 11 nM; on BRD3 (His-Brd3(20-477)) it was below 11 nM; in experiment [1], 5100 nM; in experiment [2], 91.2 nM. For the same molecule, the GI50 in the experiment on THP-1 cells turned out to be 83.6 nM; in the experiment on K-562 cells, 572 nM; with MV-4-11 cells it was 40.5 nM. In addition, the “THP-1 TGI” value with THP-1 cells was 193 nM. The “K-562 TGI” value in the experiment with K-562 cells was above 10000 nM. The “MV-4-11 TGI” value in the experiment on MV-4-11 cells turned out to be 68.8 nM.
With `CCn1c(-c2cccnc2OC)nc2c1C(=O)N(c1cc(C)c(=O)n(C)c1)[C@@H]2c1ccc(Cl)cc1` [Example 41, (R)-6-(4-chlorophenyl)-5-(1,5-dimethyl-6-oxo-1,6-dihydropyridin-3-yl)-3-ethyl-2-(2-methoxypyridin-3-yl)-5,6-dihydropyrrolo[3,4-d]imidazol-4(3H)-one], the IC50 on BRD4 (His-Brd4(44-477)) stood at 16 nM; at BRD2 (His-Brd2(60-472)), 15.5 nM; on BRD3 (His-Brd3(20-477)), 17 nM; in experiment [1], 430 nM; in experiment [2] it was 7 nM. Further, the GI50 in the experiment with THP-1 cells worked out at 13.8 nM; with K-562 cells it was 45.2 nM; in the experiment with MV-4-11 cells, 6.72 nM. For the same molecule, the “THP-1 TGI” value in the experiment with THP-1 cells is 30.6 nM. Also, in the experiment with K-562 cells, the “K-562 TGI” value is above 10000 nM. Further, the “MV-4-11 TGI” value in the experiment on MV-4-11 cells came to 11 nM.
As to `Cc1cc(N2C(=O)c3nc(C)n(C(C)C)c3C2c2ccc(Cl)cc2)nn2c(C)nnc12` (racemic) [Example 18, 6-(4-chlorophenyl)-5-(3,8-dimethyl-[1,2,4]triazolo[4,3-b]pyridazin-6-yl)-1-isopropyl-2-methyl-5,6-dihydropyrrolo[3,4-d]imidazol-4(1H)-one], the IC50 on BRD4 (His-Brd4(44-477)) amounted to 13 nM; at BRD2 (His-Brd2(60-472)) it was 19 nM; at BRD3 (His-Brd3(20-477)), 11 nM; in experiment [1], 27700 nM; in experiment [2], 7.55 nM. In addition, the concentration for 50% growth inhibition (GI50) came out at 15.9 nM in the experiment with THP-1 cells, 91 nM with K-562 cells and 11.2 nM in the experiment on MV-4-11 cells. Besides, in the experiment with THP-1 cells, the “THP-1 TGI” value was 35.6 nM. Further, the “K-562 TGI” value in the experiment with K-562 cells is above 10000 nM. Besides, in the experiment on MV-4-11 cells, the “MV-4-11 TGI” value is 26.95 nM.
Regarding `Cc1cc(N2C(=O)c3c(nc(C)n3C3CC3)C2c2ccc(Cl)cc2)cn2c(C)nnc12` (stereo not shown) [Example 115, 6-(4-chlorophenyl)-3-cyclopropyl-5-(3,8-dimethyl-[1,2,4]triazolo[4,3-a]pyridin-6-yl)-2-methyl-5,6-dihydropyrrolo[3,4-d]imidazol-4(3H)-one], the 50% inhibitory concentration (IC50) was 48 nM on BRD4 (His-Brd4(44-477)), 68 nM at BRD2 (His-Brd2(60-472)), 66 nM at BRD3 (His-Brd3(20-477)) and 20.5 nM in experiment [2]. The concentration for 50% growth inhibition (GI50) came to 23.4 nM with THP-1 cells, 102 nM in the experiment on K-562 cells and 10.3 nM in the experiment with MV-4-11 cells. In the experiment on THP-1 cells, the “THP-1 TGI” value was found to be 58.1 nM. For the same molecule, the “K-562 TGI” value with K-562 cells is above 10000 nM. Moreover, the “MV-4-11 TGI” value in the experiment with MV-4-11 cells amounted to 17.7 nM.
As to `CC(C)n1c(-c2cnoc2)nc2c1C(c1ccc(Cl)cc1)N(c1ccc(=O)n(C)c1)C2=O` (stereo not shown) [Example 19, 6-(4-chlorophenyl)-1-isopropyl-2-(isoxazol-4-yl)-5-(1-methyl-6-oxo-1,6-dihydropyridin-3-yl)-5,6-dihydropyrrolo[3,4-d]imidazol-4(1H)-one], the IC50 was 220 nM on BRD4 (His-Brd4(44-477)) and above 10000 nM in experiment [2].
For `Cc1noc(C)c1-c1nc2c(n1C(C)C)C(c1ccc(Cl)cc1)N(c1cc(C)c(=O)n(C)c1)C2=O` (stereo not shown) [Example 27, 6-(4-chlorophenyl)-5-(1,5-dimethyl-6-oxo-1,6-dihydropyridin-3-yl)-2-(3,5-dimethylisoxazol-4-yl)-1-isopropyl-5,6-dihydropyrrolo[3,4-d]imidazol-4(1H)-one], the IC50 on BRD4 (His-Brd4(44-477)) was 120 nM; at BRD2 (His-Brd2(60-472)) it was 140 nM; at BRD3 (His-Brd3(20-477)), 96 nM; in experiment [2] it was 279 nM. The GI50 in the experiment on THP-1 cells stood at 195 nM; in the experiment on K-562 cells, 861 nM; in the experiment with MV-4-11 cells it was 82.7 nM. In the experiment on THP-1 cells, the “THP-1 TGI” value worked out at 433 nM. The “K-562 TGI” value with K-562 cells was above 10000 nM. Also, the “MV-4-11 TGI” value in the experiment with MV-4-11 cells is 142 nM.
As to `COc1ccc(-c2nc3c([nH]2)C(c2ccc(Cl)cc2)N(c2cc(OC)c4nnc(C)n4c2)C3=O)cn1` (stereo not shown) [Example 125, 6-(4-chlorophenyl)-5-(8-methoxy-3-methyl-[1,2,4]triazolo[4,3-a]pyridin-6-yl)-2-(6-methoxypyridin-3-yl)-5,6-dihydropyrrolo[3,4-d]imidazol-4(1H)-one], the half-inhibitory concentration (IC50) was determined as 34900 nM in experiment [1] and 1950 nM in experiment [2]. Also, the 50% growth inhibitory concentration (GI50) with THP-1 cells was 2140 nM; in the experiment on K-562 cells, 5290 nM; with MV-4-11 cells, 809 nM. Also, the “THP-1 TGI” value in the experiment on THP-1 cells was 3920 nM. For the same molecule, in the experiment on K-562 cells, the “K-562 TGI” value was above 10000 nM. Moreover, the “MV-4-11 TGI” value with MV-4-11 cells stood at 1120 nM.
As to `COC(=O)N1CC=C(c2nc3c(n2C(C)C)C(c2ccc(Cl)cc2)N(c2cc(C)c4nnc(C)n4c2)C3=O)CC1` (stereo not shown) [Example 65, methyl 4-(6-(4-chlorophenyl)-5-(3,8-dimethyl-[1,2,4]triazolo[4,3-a]pyridin-6-yl)-1-isopropyl-4-oxo-1,4,5,6-tetrahydropyrrolo[3,4-d]imidazol-2-yl)-5,6-dihydropyridine-1(2H)-carboxylate], the IC50 at BRD4 (His-Brd4(44-477)) was found to be 24 nM; at BRD2 (His-Brd2(60-472)) it was 50 nM; on BRD3 (His-Brd3(20-477)), 27.5 nM; in experiment [1], 4000 nM. Also, the 50% growth inhibitory concentration (GI50) was 138 nM with THP-1 cells, 298 nM in the experiment on K-562 cells and 19.3 nM in the experiment on MV-4-11 cells. In addition, the “THP-1 TGI” value with THP-1 cells amounted to 299.5 nM. Also, the “K-562 TGI” value with K-562 cells was above 10000 nM. Further, in the experiment with MV-4-11 cells, the “MV-4-11 TGI” value was determined as 38.95 nM.

The values above are taken from patent US9890166B2, “Imidazopyrrolidine derivatives and their use in the treatment of disease” (NOVARTIS AG, priority 2013, dated 2018).
